Like-named read-outs stand apart in the source and are kept apart here.
How the values were obtained:
wild-type vaccinia virus = format: cell-based
VHE H5 HX-A56R NEO = format: cell-based, vaccinia virus

## CN[C@@H]1[C@@H](O)[C@@H](O[C@@H]2[C@@H](O)[C@H](O[C@H]3O[C@H]([C@@H](C)O)[C@@H](O)[C@H](O)[C@H]3N)[C@@H](N)C[C@H]2N)OC[C@]1(C)O [G418]
wild-type vaccinia virus; 0.125 to 2 mg/ml of G418, in words
  inhibition of amplification of wild-type vaccinia virus: significantly inhibited
wild-type vaccinia virus; G418 0.125 mg/ml
  % Inhibition: 60.8%
  Titer: 1.58E+07
wild-type vaccinia virus; G418 0.25 mg/ml
  % Inhibition: 79.4%
  Titer: 8.26E+06
wild-type vaccinia virus; G418 0.5 mg/ml
  % Inhibition: 93.7%
  Titer: 2.54E+06
wild-type vaccinia virus; G418 1 mg/ml
  % Inhibition: 96.6%
  Titer: 1.36E+06
wild-type vaccinia virus; G418 2 mg/ml
  % Inhibition: 99.6%
  Titer: 1.59E+05
VHE H5 HX-A56R NEO
  inhibition of amplification of vaccinia virus expressing heavy chain linked to a neomycin resistance marker: no inhibition effect
VHE H5 HX-A56R NEO; G418 0.125 mg/ml
  % Inhibition: −26.7%
  Titer: 2.88E+07
VHE H5 HX-A56R NEO; G418 0.25 mg/ml
  % Inhibition: −36.7%
  Titer: 3.11E+07
VHE H5 HX-A56R NEO; G418 0.5 mg/ml
  % Inhibition: −50.0%
  Titer: 3.41E+07
VHE H5 HX-A56R NEO; G418 1 mg/ml
  % Inhibition: −40.0%
  Titer: 3.18E+07
VHE H5 HX-A56R NEO; G418 2 mg/ml
  % Inhibition: −33.3%
  Titer: 3.03E+07
